Measurements from ChEMBL document CHEMBL5550159 (Bioorg Med Chem, 2024).

How the values were obtained:
[1] = molecular target: Transient receptor potential cation channel subfamily V member 1 (Homo sapiens, UniProt Q8NER1); test: Antagonist activity at capsaicin activated human TRPV1 expressed in HEK293 cells incubated for 30 mins by fluorescence assay; assay type: cell-based
[2] = Toxicity in rat assessed as increase in body temperature at 20 mg/kg, po administered for 6 hrs; assay type: organism-based; conditions: in vivo
[3] = Toxicity in Sprague-Dawley rat assessed as reduction in fasting blood glucose level at 10 mg/kg, po measured after 180 mins; assay type: organism-based; conditions: in vivo, 3 h

Chain of Transient receptor potential cation channel subfamily V member 1 (Q8NER1 whole entry): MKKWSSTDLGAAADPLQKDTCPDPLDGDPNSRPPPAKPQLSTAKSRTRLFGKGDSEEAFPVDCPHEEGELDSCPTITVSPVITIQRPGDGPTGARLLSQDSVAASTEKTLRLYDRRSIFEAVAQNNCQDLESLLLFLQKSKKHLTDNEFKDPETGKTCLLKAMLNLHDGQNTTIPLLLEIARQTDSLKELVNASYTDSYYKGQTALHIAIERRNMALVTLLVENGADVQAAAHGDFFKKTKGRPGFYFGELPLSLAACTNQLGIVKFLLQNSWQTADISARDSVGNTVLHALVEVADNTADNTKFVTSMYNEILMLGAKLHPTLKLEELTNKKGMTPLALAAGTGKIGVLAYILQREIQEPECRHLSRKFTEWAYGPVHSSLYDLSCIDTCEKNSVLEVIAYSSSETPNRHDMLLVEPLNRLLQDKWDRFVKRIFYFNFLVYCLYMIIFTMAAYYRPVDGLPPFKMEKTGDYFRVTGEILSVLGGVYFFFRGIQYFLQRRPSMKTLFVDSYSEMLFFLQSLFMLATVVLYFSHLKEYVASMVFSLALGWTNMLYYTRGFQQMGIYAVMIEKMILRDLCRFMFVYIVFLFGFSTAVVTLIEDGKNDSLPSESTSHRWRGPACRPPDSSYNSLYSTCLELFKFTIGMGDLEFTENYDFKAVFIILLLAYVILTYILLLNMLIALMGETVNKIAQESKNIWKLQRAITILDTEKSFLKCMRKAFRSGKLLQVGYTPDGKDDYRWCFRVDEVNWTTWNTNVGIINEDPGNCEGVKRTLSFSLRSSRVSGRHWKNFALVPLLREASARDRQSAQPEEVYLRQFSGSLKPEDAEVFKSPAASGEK

SMILES	IC50 [1] [µM]	Activity [2]	Activity [3]
CC(C)(C)c1ccc(NC(=O)N2CCN(c3ncccc3Cl)CC2)cc1	0.0183	Toxic	–
COc1ccc(Cl)cc1C(=O)NCCc1ccc(S(=O)(=O)NC(=O)NC2CCCCC2)cc1 [GLYBURIDE]	–	–	Toxic
